Consider 2 compounds from patent publication US10591445B2, “Methods for analysis and resolution of preparations of dianhydrogalactitol and derivatives or analogs thereof” (Del Mar Pharmaceuticals (BC) Ltd., priority 2015, dated 2020).

Series [1] can be described thus: Solution stability of DAG sample solution (HPLC-ELSD). Type of series: physicochemical. The settings on record: 8 mg/mL in acetonitrile/water (85:15). The protocol: The test sample solutions (nominal 8 mg/mL) are prepared as follows. The sample preparation for DAG drug substance or API can be as follows. Accurately weigh, in duplicate, about 80 mg of DAG API sample into clean 10 mL volumetric flasks. Dissolve DAG API sample in approximately 5 mL of diluent, diluted to volume with diluent, and mix. The sample preparation for DAG drug product (lyophilized powder, 40 mg/vial) can be as follows: Clean and remove the closure of the vial. Reconstitute the lyophilized vial with 5.0 mL diluent to yield an 8 mg/mL solution. Prepare samples in duplicate (using 2 vials). The sample solutions can be stored up to 48 hrs at 2-8° C. and 52 hrs at ambient laboratory conditions.
With respect to solution stability, the recovery of the aged solutions should be within 85%-115% of the initial assay. […]
The experimental approach for determining solution stability was as follows: For a standard solution, a dulcitol standard solution was prepared at 1.0% of DAG nominal conc. in one replicate and placed the solution under ambient laboratory conditions and refrigerated conditions (2-8° C.), respectively, using 1% Linearity standard solutions). […] For time points of less than 24 hours, solution stability is evaluated against fresh standards. The recovery of the aged solutions is evaluated. […] For time points of less than 24 hours, solution stability is evaluated against fresh standards.

Series [2] in a line: Solution stability of dulcitol standard solution (HPLC-ELSD). Type of series: physicochemical. The following applies: for Assay / Concentration: standard solution. The protocol:
The standard solutions can be stored up to 48 hrs at 2-8° C. and can be stored up to 52 hrs at ambient laboratory condition. The standard solutions can be used to generate a standard curve as described further below.
With respect to solution stability, the recovery of the aged solutions should be within 85%-115% of the initial assay. The absolute difference should be no more than 0.2% for an impurity at ≤1.0%. For an impurity >1.0%, the result of the aged solution should be within 80%-120% of the original. No new impurities at ≥1.0% should be observed.
The experimental approach for determining solution stability was as follows: For a standard solution, a dulcitol standard solution was prepared at 1.0% of DAG nominal conc. in one replicate and placed the solution under ambient laboratory conditions and refrigerated conditions (2-8° C.), respectively, using 1% Linearity standard solutions). The solution was reanalyzed at different time intervals, such as 2 hours, 4 hours, 8 hours, 24 hours and 48 hours. For time points of less than 24 hours, solution stability is evaluated against fresh standards. The recovery of the aged solutions is evaluated. For sample solutions, a sample solution at a specified DAG nominal concentration was prepared in one replicate and placed under laboratory conditions at ambient temperature or under refrigerated conditions (2-8° C.). The solution was reanalyzed at different time intervals, such as 2 hours, 4 hours, 8 hours, 24 hours and 48 hours. For time points of less than 24 hours, solution stability is evaluated against fresh standards.

Where [3] appears, read: ambient laboratory conditions, 0 h.
Setting [4] is: ambient laboratory conditions, 2 h.
Setting [5] is: ambient laboratory conditions, 4 h.
Setting [6] is: ambient laboratory conditions, 8 h.
The mark [7] stands for this setting: ambient laboratory conditions, 25 h.
[8] abbreviates: ambient laboratory conditions, 48 h.

On to `OC(C1CO1)C(O)C1CO1` (stereo not shown) [DAG, 1,2:5,6 dianhydrogalactitol], for which the “Time the sample solutions can be stored” value in series [1] (2-8° C.) was “up to 48 hrs”; in series [1] (ambient laboratory conditions), at most 52 h.
As to `OC[C@@H](O)[C@H](O)[C@H](O)[C@@H](O)CO` [Dulcitol, dulcitol], the “Time the standard solutions can be stored” value is listed as “up to 48 hrs” in series [2] (2-8° C.) and “up to 52 hrs” in series [2] (ambient laboratory condition). Moreover, the Assay stood at 109.233% in series [2] (2-8° C., 0 h); 109.076% in series [2] (2-8° C., 2 h); 109.164% in series [2] (2-8° C., 4 h); 108.302% in series [2] (2-8° C., 8 h); 109.056% in series [2] (2-8° C., 25 h); 108.947% in series [2] (2-8° C., 48 h). Moreover, the Assay was found to be 109.944% in series [2] (setting [3]); 109.778% in series [2] (setting [4]); 109.059% in series [2] (setting [5]); 108.590% in series [2] (setting [6]); 110.553% in series [2] (setting [7]); 108.986% in series [2] (setting [8]). Besides, the Concentration in series [2] (2-8° C., 0 h) was 89.5 µg/mL; in series [2] (2-8° C., 2 h), 89.4 µg/mL; in series [2] (2-8° C., 4 h) it was 89.5 µg/mL; in series [2] (2-8° C., 8 h), 88.8 µg/mL; in series [2] (2-8° C., 25 h) it was 89.4 µg/mL; in series [2] (2-8° C., 48 h), 89.3 µg/mL. Besides, the Concentration stood at 89.8 µg/mL in series [2] (setting [3]); 89.7 µg/mL in series [2] (setting [4]); 89.1 µg/mL in series [2] (setting [5]); 88.7 µg/mL in series [2] (setting [6]); 90.3 µg/mL in series [2] (setting [7]); 89.1 µg/mL in series [2] (setting [8]).
